According to patent US20080182842A1, “L-alanine derivatives as a5beta1 antagonists” (ASTRAZENECA AB, priority 2007, published 2008):

target: α5β1 integrin (Homo sapiens, UniProt P05556+P08648); assay: In vitro binding assay (a): inhibition of binding of α5β1 integrin to fibronectin fragment Fn9-10 (Origen electrochemiluminescence); details: recombinant human α5β1 vs Fn9-10 ligand; geometric mean where tested more than once
From the text: (a) In Vitro Binding Assay
The assay determined the ability of compounds to inhibit binding of α5β1 integrin to a cognate ligand, a fragment of human fibronectin. The assay used Origen technology (IGEN International) to measure the compound activity. Briefly, α5β1 integrin was coated onto epoxy-paramagnetic beads (Dynal Biotech UK, Bromborough, Wirral, CH62 3QL, UK, Catalogue No 140.11) and biotinylated-fibronectin ligand was coupled to strepatividin labeled Tag-NHS-Ester (BioVeris Corporation, Witney, Oxfordshire, OX28 4GE, UK, Catalogue No 110034). The ruthenium-labeled tag emits an electrochemiluminescence signal upon stimulation which is detected by the Origen reader. Thus, interaction of integrin and ligand causes association of bead and tag, and the resulting electrochemiluminescence signal reflects the level of integrin interaction with fibronectin.
20 μg of recombinant human α5β1 was coated onto 4×10(7) epoxy-paramagnetic beads according to manufacturers instructions at 4° C. for 24 hours. Integrin coating and corresponding activity was subsequently measured for each batch but typically, 25 ng of coated protein was used per assay well.
A DNA fragment encoding the domains 9-10 (amino-acids 1325-1509) of human fibronectin (Swiss-Prot Accession No. P02751) was isolated from cDNA libraries using standard molecular biology and PCR cloning techniques. The cDNA fragment was sub-cloned into a pT73.3 expression vector containing a GST-epitope tag (developed at AstraZeneca; Bagnall et al., Protein Expression and Purification, 2003, 27: 1-11). Following expression in E. coli, the expressed protein, termed Fn9-10, was purified using the GST-tag using standard purification techniques. The recombinant Fn9-10 was subsequently biotinylated using a EZ-link Sulfo-NHS-LC-Biotinylation kit (Perbio Science UK Ltd., Cramlington, Northumberland, NE23 1WA, UK, Catalogue No. 21335) and made to give a final concentration of approximately 1 mg/ml. Tag-NHS-Ester was labeled with streptavidin by incubation at room temperature following manufacturers instructions and buffer-exchanged into PBS to give a concentration of 0.5 mg/ ml. Immediately prior to the assay, biotinylated-Fn9-10 and Streptavidin-labeled Tag were diluted in Assay Buffer to give a final concentrations of 0.6 ug/ml and 1.5 ug/ml respectively. The Fn9-10 and Tag solutions were then mixed together in equal volumes and incubated on ice for at least 30 minutes prior to the assay.
Test compounds were prepared as 10 mM stock solutions in DMSO (Sigma-Aldrich Company Ltd, Gillingham, Dorset SP8 4XT Catalogue No. 154938) and serially diluted with 4% DMSO to give a range of test concentrations at ×4 required final concentration. Aliquots (20 μl) of each compound dilution were placed into each well of a 384-well round bottomed polypropylene plate (Matrix Technologies, Wilmslow, Cheshire, SK9 3LP, Catalogue No. 4340 384). Each plate also contained control wells: maximum signal was created using wells containing 20 μl of 4% DMSO, and minimum signal corresponding to no binding was created using wells containing 20 μl of 80 mM EDTA (Sigma Catalogue No. E7889).
For the assay, 25 ng(20 ul) of a5b1-bead suspension and 40 μl of the Fn9-10/Tag pre-incubated solution were added to each well containing 20 μl of compound or control solution. Assay plates were then incubated at room temperature for a minimum of 6 hours before being analysed on an Origen plate reader. The minimum value was subtracted from all values, and the signal was plotted against compound concentration to generate IC50 data.
The data in the above table was generated in an assay substantially as described above in relation to Binding Assay (a). Some of the compounds shown in the table were tested more than once in the assay. For those compounds the IC50 value shown is the geometric mean of the measured IC50 values. […]

Chain of α5β1 integrin (P08648 42-894 limits assumed): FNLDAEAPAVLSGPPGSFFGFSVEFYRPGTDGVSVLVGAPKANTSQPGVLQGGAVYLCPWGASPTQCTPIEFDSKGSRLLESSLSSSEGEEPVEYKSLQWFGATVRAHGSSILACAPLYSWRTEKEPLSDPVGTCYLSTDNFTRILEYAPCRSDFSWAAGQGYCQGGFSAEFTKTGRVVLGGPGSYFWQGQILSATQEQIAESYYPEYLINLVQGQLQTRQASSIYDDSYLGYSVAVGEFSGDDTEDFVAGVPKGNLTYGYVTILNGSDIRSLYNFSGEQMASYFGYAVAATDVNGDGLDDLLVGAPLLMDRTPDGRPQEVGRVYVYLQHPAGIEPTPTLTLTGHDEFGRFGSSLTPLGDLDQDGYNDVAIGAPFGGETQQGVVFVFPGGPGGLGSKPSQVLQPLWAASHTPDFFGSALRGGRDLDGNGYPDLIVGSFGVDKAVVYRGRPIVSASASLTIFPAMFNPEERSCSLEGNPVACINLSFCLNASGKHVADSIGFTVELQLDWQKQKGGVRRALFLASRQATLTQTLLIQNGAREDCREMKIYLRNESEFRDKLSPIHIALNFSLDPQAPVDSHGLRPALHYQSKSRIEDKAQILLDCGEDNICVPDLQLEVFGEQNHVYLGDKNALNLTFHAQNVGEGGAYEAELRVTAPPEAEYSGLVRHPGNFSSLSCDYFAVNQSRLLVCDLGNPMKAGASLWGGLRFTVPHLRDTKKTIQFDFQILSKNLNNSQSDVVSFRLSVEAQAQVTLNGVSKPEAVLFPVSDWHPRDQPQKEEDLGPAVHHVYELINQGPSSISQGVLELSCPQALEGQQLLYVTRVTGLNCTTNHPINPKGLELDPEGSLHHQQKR
Chain of α5β1 integrin (P08648 895-1049 partner limits assumed): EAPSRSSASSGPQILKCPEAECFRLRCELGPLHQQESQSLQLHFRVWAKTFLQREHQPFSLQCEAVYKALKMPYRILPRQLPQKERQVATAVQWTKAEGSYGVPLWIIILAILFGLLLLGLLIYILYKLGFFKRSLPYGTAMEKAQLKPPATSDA
Chain of α5β1 integrin (P05556 21-798): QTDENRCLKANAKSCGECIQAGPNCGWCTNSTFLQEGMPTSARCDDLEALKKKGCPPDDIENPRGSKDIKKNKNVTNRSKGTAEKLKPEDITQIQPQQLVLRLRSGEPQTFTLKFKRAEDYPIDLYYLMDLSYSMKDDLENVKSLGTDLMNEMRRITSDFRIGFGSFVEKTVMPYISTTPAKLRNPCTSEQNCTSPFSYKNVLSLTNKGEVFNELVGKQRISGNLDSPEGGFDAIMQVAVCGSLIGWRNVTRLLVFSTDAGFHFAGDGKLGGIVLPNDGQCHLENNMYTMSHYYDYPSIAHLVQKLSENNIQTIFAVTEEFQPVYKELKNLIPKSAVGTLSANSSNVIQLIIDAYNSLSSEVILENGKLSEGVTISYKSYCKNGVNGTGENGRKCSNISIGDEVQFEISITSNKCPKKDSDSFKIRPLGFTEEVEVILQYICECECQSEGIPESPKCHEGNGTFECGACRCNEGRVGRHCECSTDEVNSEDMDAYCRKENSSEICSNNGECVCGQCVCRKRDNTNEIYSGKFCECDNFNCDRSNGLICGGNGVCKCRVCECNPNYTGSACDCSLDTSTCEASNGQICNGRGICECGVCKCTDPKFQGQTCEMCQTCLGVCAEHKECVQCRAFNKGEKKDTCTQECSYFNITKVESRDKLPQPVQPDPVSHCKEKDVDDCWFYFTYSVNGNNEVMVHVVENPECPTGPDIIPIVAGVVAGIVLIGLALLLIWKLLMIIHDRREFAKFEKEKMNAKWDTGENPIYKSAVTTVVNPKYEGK

| SMILES | IC50 [nM] |
| --- | --- |
| CNc1cccc(CCOc2ccc(C[C@H](NC(=O)C3(C)CCCCC3)C(=O)O)cc2)n1 [Example 1.1, O-{2-[6-(methylamino)pyridin-2-yl]ethyl}-N-[(1-methylcyclohexyl)carbonyl]-L-tyrosine] | 5 |
| CNc1cccc(CCOc2ccc(C[C@H](NC(=O)C3CCCCC3C)C(=O)O)cc2)n1 (stereo partly drawn) [Example 1.2, O-{2-[6-(methylamino)pyridin-2-yl]ethyl}-N-[(2-methylcyclohexyl)carbonyl]-L-tyrosine] | 7 |
| CNc1cccc(CCOc2ccc(C[C@H](NC(=O)[C@H](C)OC)C(=O)O)cc2)n1 [Example 1.3, N-[(2S)-2-methoxypropanoyl]-O-{2-[6-(methylamino)pyridin-2-yl]ethyl}-L-tyrosine] | 22 |
| CNc1cccc(CCOc2ccc(C[C@H](NC(=O)C(C)(C)C(=O)N3CCCC3)C(=O)O)cc2)n1 [Example 1.5, N-(2,2-dimethyl-3-oxo-3-pyrrolidin-1-ylpropanoyl)-O-{2-[6-(methylamino)pyridin-2-yl]ethyl}-L-tyrosine] | 2 |
| CNc1cccc(CCOc2ccc(C[C@H](NC(=O)C3(O)CC3)C(=O)O)cc2)n1 [Example 1.6, N-[(1-hydroxycyclopropyl)carbonyl]-O-{2-[6-(methylamino)pyridin-2-yl]ethyl}-L-tyrosine] | 958 |
| CC#CC(=O)N[C@@H](Cc1ccc(OCCc2cccc(NC)n2)cc1)C(=O)O [Example 1.8, N-but-2-ynoyl-O-{2-[6-(methylamino)pyridin-2-yl]ethyl}-L-tyrosine] | 363 |
| CCC(=O)N[C@@H](Cc1ccc(OCCc2cccc(NC)n2)cc1)C(=O)O [Example 1.9, O-{2-[6-(methylamino)pyridin-2-yl]ethyl}-N-propionyl-L-tyrosine] | 116 |
| CCCCCC(=O)N[C@@H](Cc1ccc(OCCc2cccc(NC)n2)cc1)C(=O)O [Example 1.10, N-hexanoyl-O-{2-[6-(methylamino)pyridin-2-yl]ethyl}-L-tyrosine] | 179 |
| CNc1cccc(CCOc2ccc(C[C@H](NC(=O)C(C)C)C(=O)O)cc2)n1 [Example 1.11, N-isobutyryl-O-{2-[6-(methylamino)pyridin-2-yl]ethyl}-L-tyrosine] | 73 |
| CNc1cccc(CCOc2ccc(C[C@H](NC(=O)C3CCCC3)C(=O)O)cc2)n1 [Example 1.16, N-(cyclopentylcarbonyl)-O-{2-[6-(methylamino)pyridin-2-yl]ethyl}-L-tyrosine] | 9 |
| CNc1cccc(CCOc2ccc(C[C@H](NC(=O)C3CC3)C(=O)O)cc2)n1 [Example 1.18, N-(cyclopropylcarbonyl)-O-{2-[6-(methylamino)pyridin-2-yl]ethyl}-L-tyrosine] | 608 |
| CNc1cccc(CCOc2ccc(C[C@H](NC(=O)CCc3ccccc3)C(=O)O)cc2)n1 [Example 1.21, O-{2-[6-(methylamino)pyridin-2-yl]ethyl}-N-(3-phenylpropanoyl)-L-tyrosine] | 45 |
| CNc1cccc(CCOc2ccc(C[C@H](NC(=O)C(c3ccccc3)c3ccccc3)C(=O)O)cc2)n1 [Example 1.24, N-(diphenylacetyl)-O-{2-[6-(methylamino)pyridin-2-yl]ethyl}-L-tyrosine] | 45 |
| CNc1cccc(CCOc2ccc(C[C@H](NC(=O)Cc3ccccn3)C(=O)O)cc2)n1 [Example 1.25, O-{2-[6-(methylamino)pyridin-2-yl]ethyl}-N-(pyridin-2-ylacetyl)-L-tyrosine] | 235 |
| CNc1cccc(CCOc2ccc(C[C@H](NC(=O)Cc3cccnc3)C(=O)O)cc2)n1 [Example 1.26, O-{2-[6-(methylamino)pyridin-2-yl]ethyl}-N-(pyridin-3-ylacetyl)-L-tyrosine] | 525 |
| CNc1cccc(CCOc2ccc(C[C@H](NC(=O)Cc3ccncc3)C(=O)O)cc2)n1 [Example 1.27, O-{2-[6-(methylamino)pyridin-2-yl]ethyl}-N-(pyridin-4-ylacetyl)-L-tyrosine] | 287 |
| CC1(C(=O)N[C@@H](Cc2ccc(OCCc3ccc4c(n3)NCCC4)cc2)C(=O)O)CCCCC1 [Example 2.1, N-[(1-methylcyclohexyl)carbonyl]-O-[2-(5,6,7,8-tetrahydro-1,8-naphthyridin-2-yl)ethyl]-L-tyrosine] | 1 |

Next, values leading:

| IC50 [nM] | SMILES |
| --- | --- |
| 66 | CNc1cccc(CCOc2ccc(C[C@H](NC(=O)[C@H](CC(C)C)NC(=O)c3ccccc3)C(=O)O)cc2)n1 [Example 1.4, N-benzoylleucyl-O-{2-[6-(methylamino)pyridin-2-yl]ethyl}-L-tyrosine] |
| 4 | CNc1cccc(CCOc2ccc(C[C@H](NC(=O)C3(OC)CCOCC3)C(=O)O)cc2)n1 [Example 1.7, N-[(4-methoxytetrahydro-2H-pyran-4-yl)carbonyl]-O-{2-[6-(methylamino)pyridin-2-yl]ethyl}-L-tyrosine] |
| 8 | CCCCC(CC)C(=O)N[C@@H](Cc1ccc(OCCc2cccc(NC)n2)cc1)C(=O)O (stereo partly drawn) [Example 1.12, N-(2-ethylhexanoyl)-O-{2-[6-(methylamino)pyridin-2-yl]ethyl}-L-tyrosine] |
| 34 | CNc1cccc(CCOc2ccc(C[C@H](NC(=O)C(C)(C)C)C(=O)O)cc2)n1 [Example 1.13, N-(2,2-dimethylpropanoyl)-O-{2-[6-(methylamino)pyridin-2-yl]ethyl}-L-tyrosine] |
| 7 | CNc1cccc(CCOc2ccc(C[C@H](NC(=O)C3CCCCCC3)C(=O)O)cc2)n1 [Example 1.14, N-(cycloheptylcarbonyl)-O-{2-[6-(methylamino)pyridin-2-yl]ethyl}-L-tyrosine] |
| 32 | CNc1cccc(CCOc2ccc(C[C@H](NC(=O)C3CCCCC3)C(=O)O)cc2)n1 [Example 1.15, N-(cyclohexylcarbonyl)-O-{2-[6-(methylamino)pyridin-2-yl]ethyl}-L-tyrosine] |
| 49 | CNc1cccc(CCOc2ccc(C[C@H](NC(=O)C3CCC3)C(=O)O)cc2)n1 [Example 1.17, N-(cyclobutylcarbonyl)-O-{2-[6-(methylamino)pyridin-2-yl]ethyl}-L-tyrosine] |
| 29 | CNc1cccc(CCOc2ccc(C[C@H](NC(=O)[C@@H](C)OC)C(=O)O)cc2)n1 [Example 1.19, N-[(2R)-2-methoxypropanoyl]-O-{2-[6-(methylamino)pyridin-2-yl]ethyl}-L-tyrosine] |
| 32 | CNc1cccc(CCOc2ccc(C[C@H](NC(=O)C3(CO)CCOCC3)C(=O)O)cc2)n1 [Example 1.20, N-{[4-(hydroxymethyl)tetrahydro-2H-pyran-4-yl]carbonyl}-O-{2-[6-(methylamino)pyridin-2-yl]ethyl}-L-tyrosine] |
| 215 | CNc1cccc(CCOc2ccc(C[C@H](NC(=O)Cc3ccccc3)C(=O)O)cc2)n1 [Example 1.22, O-{2-[6-(methylamino)pyridin-2-yl]ethyl}-N-(phenylacetyl)-L-tyrosine] |
| 837 | CNc1cccc(CCOc2ccc(C[C@H](NC(=O)C(O)c3ccccc3)C(=O)O)cc2)n1 (stereo partly drawn) [Example 1.23, N-[hydroxy(phenyl)acetyl]-O-{2-[6-(methylamino)pyridin-2-yl]ethyl}-L-tyrosine] |
| < 1 | CC1CCCCC1C(=O)N[C@@H](Cc1ccc(OCCc2ccc3c(n2)NCCC3)cc1)C(=O)O (stereo partly drawn) [Example 2.2, N-[(2-methylcyclohexyl)carbonyl]-O-[2-(5,6,7,8-tetrahydro-1,8-naphthyridin-2-yl)ethyl]-L-tyrosine] |
| 107 | CNc1cccc(CCOc2ccc(C[C@H](NC(=O)C3CCCN3C)C(=O)O)cc2)n1 (stereo partly drawn) [Example 3, N-[(1-methylpyrrolidin-2-yl)carbonyl]-O-{2-[6-(methylamino)pyridin-2-yl]ethyl}-L-tyrosine] |
